Measured values reported in US8501770B2 (ArQule, Inc., priority 2009, dated 2013).

Each molecule was assayed against Full-length inactive AKT1 (Homo sapiens, UniProt P31749) (assay: Inactive Akt Alpha Screen Assay). Details: AlphaScreen assay (values not marked with *); read-out: Akt1 IC50, (AlphaScreen) (μM) (or if marked with “*” HTRF assay).
Type: biochemical
Summary of the method: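 AlphaScreen read-out (excitation 640 nm, emission 570 nm) after 90 min incubation at room temperature in the dark. Signal comes from crosstide phosphorylation by AKT1, which was activated by added PDK1, MAPKAPK2, ATP and lipid vesicles, captured via phospho-AKT substrate antibody and streptavidin beads.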

Sequence of Full-length inactive AKT1 (P31749 whole entry): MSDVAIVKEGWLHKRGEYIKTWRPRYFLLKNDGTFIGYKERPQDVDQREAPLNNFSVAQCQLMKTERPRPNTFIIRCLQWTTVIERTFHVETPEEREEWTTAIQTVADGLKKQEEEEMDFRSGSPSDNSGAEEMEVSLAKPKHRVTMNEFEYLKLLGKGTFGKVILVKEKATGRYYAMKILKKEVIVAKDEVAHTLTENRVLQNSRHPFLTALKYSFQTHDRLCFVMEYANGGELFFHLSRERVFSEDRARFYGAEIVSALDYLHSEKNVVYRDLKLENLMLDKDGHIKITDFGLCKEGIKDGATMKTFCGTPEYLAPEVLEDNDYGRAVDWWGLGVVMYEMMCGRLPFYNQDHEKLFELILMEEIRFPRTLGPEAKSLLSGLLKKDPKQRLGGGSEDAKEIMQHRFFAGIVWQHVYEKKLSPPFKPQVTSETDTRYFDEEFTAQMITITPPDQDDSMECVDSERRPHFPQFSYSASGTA

Work on Nc1ncccc1-c1nc2ccc(-c3cccc(N4CCCC4)c3)nc2n1-c1ccc(C2(N)CCC2)cc1 [Example 449, 3-{3-[4-(1-aminocyclobutyl)phenyl]-5-(3-pyrrolidin-1-ylphenyl)-3H-imidazo[4,5-b]pyridin-2-yl}pyridin-2-amine] yielded an IC50 of 0.0023 µM.

Same assay, conditions: values not marked with "*": AlphaScreen assay; read-out: Akt1 IC50, (AlphaScreen)

Going from COc1ccc(NC(=O)Cc2ccc(-n3c(-c4cccnc4N)nc4cccnc43)cc2)cc1F [Example 128] to COc1ccccc1C(=O)NCc1ccc(-n2c(-c3cccnc3N)nc3cccnc32)cc1 [Example 50], the IC50 rises from 0.216 µM to 2.61 µM (12-fold). The first is the more potent here.

Compared with Nc1ncccc1-c1nc2cccnc2n1-c1ccc(CNC(=O)c2cccnc2)cc1 [Example 12], Cc1noc(C)c1S(=O)(=O)NCc1ccc(-n2c(-c3cccnc3N)nc3cc(Br)cnc32)cc1 [Example 154, N-{4-[2-(2-aminopyridin-3-yl)-6-bromo-3H-imidazo[4,5-b]pyridin-3-yl]benzyl}-3,5-dimethylisoxazole-4-sulfonamide] is 5.7-fold higher in IC50: 0.211 µM for the first, 1.2 µM for the second.

Same assay, conditions: values not marked with "*"; read-out: Akt1 IC50, (AlphaScreen)

First: Cc1ccnc2c1nc(-c1cccnc1N)n2-c1ccc(CNC(=O)c2ccccc2)cc1 [Example 210, N-(4-(2-(2-aminopyridin-3-yl)-7-methyl-3H-imidazo[4,5-b]pyridin-3-yl)benzyl)benzamide]
Second: Cc1cnc2c(c1)nc(-c1cccnc1N)n2-c1ccc(CNC(=O)c2ccccc2C)cc1 [Example 223, N-(4-(2-(2-aminopyridin-3-yl)-6-methyl-3H-imidazo[4,5-b]pyridin-3-yl)benzyl)-2-methylbenzamide]
The IC50 of the first is 7-fold higher: 0.21 µM for the first, 0.03 µM for the second.

First: CC(=O)Nc1ccc(C(=O)NCc2ccc(-n3c(-c4cccnc4N)nc4cc(C)cnc43)cc2)cc1 [Example 220, 4-acetamido-N-(4-(2-(2-aminopyridin-3-yl)-6-methyl-3H-imidazo[4,5-b]pyridin-3-yl)benzyl)benzamide]
Second: Cc1cnc2c(c1)nc(-c1cccnc1N)n2-c1ccc(CNC(=O)c2cccc(Cl)c2)cc1 [Example 282, N-(4-(2-(2-aminopyridin-3-yl)-6-methyl-3H-imidazo[4,5-b]pyridin-3-yl)benzyl)-3-chlorobenzamide]
The IC50 of the first is 2.6-fold lower: 0.054 µM for the first, 0.14 µM for the second.

CS(=O)(=O)c1cccc(-c2ccc3nc(-c4cccnc4N)n(-c4ccc(C5(N)CCC5)cc4)c3n2)c1 [Example 391, 3-(3-(4-(1-aminocyclobutyl)phenyl)-5-(3-(methylsulfonyl)phenyl)-3H-imidazo[4,5-b]pyridin-2-yl)pyridin-2-amine] and Nc1ncccc1-c1nc2ccc(-c3ccccn3)nc2n1-c1ccc(C2(N)CCC2)cc1 [Example 393, 3-(3-(4-(1-aminocyclobutyl)phenyl)-5-(pyridin-2-yl)-3H-imidazo[4,5-b]pyridin-2-yl)pyridin-2-amine] are within 1.5-fold of each other in IC50: 0.005 µM for the first, 0.0037 µM for the second.

Compared with Nc1ncccc1-c1nc2ccc(-c3nccs3)nc2n1-c1ccc(C2(N)CCC2)cc1 [Example 425, 3-{3-[4-(1-aminocyclobutyl)phenyl]-5-(1,3-thiazol-2-yl)-3H-imidazo[4,5-b]pyridin-2-yl}pyridin-2-amine], COc1cc(F)cc(-c2ccc3nc(-c4cccnc4N)n(-c4ccc(C5(N)CCC5)cc4)c3n2)c1 [Example 420, 3-{3-[4-(1-aminocyclobutyl)phenyl]-5-(3-fluoro-5-methoxyphenyl)-3H-imidazo[4,5-b]pyridin-2-yl}pyridin-2-amine] is 1.9-fold lower in IC50: 0.01 µM for the first, 0.0054 µM for the second.

Compared with Nc1ncccc1-c1nc2ccc(-c3ccncc3)nc2n1-c1ccc(NC(=O)c2ccccc2)cc1 [Example 256, N-(4-(2-(2-aminopyridin-3-yl)-5-(pyridin-4-yl)-3H-imidazo[4,5-b]pyridin-3-yl)phenyl)benzamide], Nc1ncccc1-c1nc2ccc(-c3ccccc3)nc2n1-c1ccc(C2(NC(=O)Nc3ccccc3)CCC2)cc1 [Example 381, 1-(1-(4-(2-(2-aminopyridin-3-yl)-5-phenyl-3H-imidazo[4,5-b]pyridin-3-yl)phenyl)cyclobutyl)-3-phenylurea] is 2.8-fold higher in IC50: 0.019 µM for the first, 0.054 µM for the second.

Compared with CS(=O)(=O)Nc1ncccc1-c1nc2ccc(-c3ccccc3)nc2n1-c1ccc(C2(NS(C)(=O)=O)CCC2)cc1 [Example 366, N-(3-(3-(4-(1-(methylsulfonamido)cyclobutyl)phenyl)-5-phenyl-3H-imidazo[4,5-b]pyridin-2-yl)pyridin-2-yl)methanesulfonamide], Nc1ncc(Cl)cc1-c1nc2ccc(-c3ccccc3)nc2n1-c1ccc(C2(N)CCC2)cc1 [Example 368, 3-(3-(4-(1-aminocyclobutyl)phenyl)-5-phenyl-3H-imidazo[4,5-b]pyridin-2-yl)-5-chloropyridin-2-amine] is 14-fold lower in IC50: 0.14 µM for the first, 0.01 µM for the second.

First: Nc1ncccc1-c1nc2cc(-c3cccnc3)cnc2n1-c1ccc(CC(=O)Nc2cccc(F)c2)cc1 [Example 320, 2-(4-(2-(2-aminopyridin-3-yl)-6-(pyridin-3-yl)-3H-imidazo[4,5-b]pyridin-3-yl)phenyl)-N-(3-fluorophenyl)acetamide]
Second: Nc1ncccc1-c1nc2cc(-c3ccc(CO)cc3)cnc2n1-c1ccc(CNC(=O)c2ccccc2)cc1 [Example 173, N-(4-{2-(2-aminopyridin-3-yl)-6-[4-(hydroxymethyl)phenyl]-3H-imidazo[4,5-b]pyridin-3-yl}benzyl)benzamide]
The IC50 of the first is 2.2-fold higher: 0.057 µM for the first, 0.026 µM for the second. The second is the more potent here.

Compared with Nc1ncccc1-c1nc2ccc(-c3ccc(F)cc3)nc2n1-c1ccc(CNC(=O)c2cccc(F)c2)cc1 [Example 329, N-(4-(2-(2-aminopyridin-3-yl)-5-(4-fluorophenyl)-3H-imidazo[4,5-b]pyridin-3-yl)benzyl)-3-fluorobenzamide], NCc1ccc(-n2c(-c3cccnc3N)nc3ccc(-c4cccc(C(=O)O)c4)nc32)cc1 [Example 357, 3-(3-(4-(aminomethyl)phenyl)-2-(2-aminopyridin-3-yl)-3H-imidazo[4,5-b]pyridin-5-yl)benzoic acid] is 13-fold lower in IC50: 0.36 µM for the first, 0.027 µM for the second. The second is the more potent here.

Going from CC(=O)Nc1cccc(-c2nc3c(cc2C)nc(-c2cccnc2N)n3-c2ccc(CNC(=O)c3ccccc3)cc2)c1 [Example 344, N-(4-(5-(3-acetamidophenyl)-2-(2-aminopyridin-3-yl)-6-methyl-3H-imidazo[4,5-b]pyridin-3-yl)benzyl)benzamide] to CC(=O)Nc1ccc(NC(=O)c2ccc(-n3c(-c4cccnc4N)nc4cccnc43)cc2)cc1 [Example 181, N-[4-(acetylamino)phenyl]-4-[2-(2-aminopyridin-3-yl)-3H-imidazo[4,5-b]pyridin-3-yl]benzamide], the IC50 rises from 0.023 µM to 0.84 µM (37-fold).

Going from CCOC(=O)Cc1ccc(-n2c(-c3cccnc3N)nc3ccc(-c4cccnc4)nc32)cc1 [Example 242, ethyl 2-(4-(2-(2-aminopyridin-3-yl)-5-(pyridin-3-yl)-3H-imidazo[4,5-b]pyridin-3-yl)phenyl)acetate] to CC(C)(C)OC(=O)NCc1ccc(-n2c(-c3cccnc3N)nc3ccc(-c4ccncc4)nc32)cc1 [Example 208, tert-butyl 4-(2-(2-aminopyridin-3-yl)-5-(pyridin-4-yl)-3H-imidazo[4,5-b]pyridin-3-yl)benzylcarbamate], the IC50 rises from 0.064 µM to 0.18 µM (2.8-fold). The first is the more potent here.

Going from Cc1cnc2c(c1)nc(-c1cccnc1N)n2-c1ccc(CNC(=O)c2ccccn2)cc1 [Example 284, N-(4-(2-(2-aminopyridin-3-yl)-6-methyl-3H-imidazo[4,5-b]pyridin-3-yl)benzyl)picolinamide] to Cc1cnc2c(c1)nc(-c1cccnc1N)n2-c1ccc(CNC(=O)c2ccccc2C(F)(F)F)cc1 [Example 281, N-(4-(2-(2-aminopyridin-3-yl)-6-methyl-3H-imidazo[4,5-b]pyridin-3-yl)benzyl)-2-(trifluoromethyl)benzamide], the IC50 falls from 0.77 µM to 0.071 µM (11-fold).
